In patent publication US20030109418A1, “Methods for identifying compounds for inhibition of neoplastic lesions, and pharmaceutical compositions containing such compounds” (priority 1999, published 2003):
Where a name gives a salt, the structure may show the parent alone.

Columns and labels:
28-day study in rats = format: in vivo, rat
[1] = tested on: PrEC primary prostate epithelial cell cultures; experiment: Histone-associated DNA fragmentation in normal prostate epithelial cells; format: cell-based; settings: 50 μM, up to 4 days
Protocol: The androgen-sensitive prostate tumor cell line, LNCaP (from ATCC (Rockville, Md.)) was propogated under standard conditions using […] medium containing 5% fetal calve serum and 2 mM glutamine. Primary prostate epithelial cell cultures (PrEC) derived from normal prostate (from Clonetics Inc. (San Diego, Calif.)) were grown under the same conditions as the tumor cell line except a serum-free medium optimized for the growth of such cultures was used (Clonetics Inc). For the experiments, LNCaP or PrEC cells were seeded in 96 well plates at a density of 10,000 cells per well. After 24 hours, the cells were treated with either vehicle (0.1% DMSO) or 50 μM Compound I (free base) solubilized in DMSO. After various drug treatment times (4, 24, 48, 72, or 99 hours) the cells were lysed and processed for measurement of histone-associated DNA as an indicator of apoptotic cell death (see, Piazza et al., Cancer Research 57: 2452-2459, 1997).
This is in marked contrast to conventional chemotherapeutics that induce apoptosis or necrosis in rapidly growing normal and neoplastic cells alike.

[2] = Single, escalating dose human safety study; format: in vivo; settings: single escalating oral doses
NCI-H23 = experiment: Growth inhibition, neutral red assay, NCI-H23; format: cell-based, human; settings: free base, five days
Protocol: (§1) Compound I's activity is not confined to activity against colon cancer cell lines or animal models of colon cancer. It has a broad range of anti-neoplastic effects in various neoplastic cell lines. Various types of human cancer cell lines were propagated under sterile conditions in RPMI 1640 medium with 10% fetal bovine serum, 2 mM L-glutamine and sodium bicarbonate. To determine growth inhibitory effects of Compound I, cells were seeded in 96-well plates at a density of 1000 cells per well. Twenty-four hours after plating, the cells were dosed with various concentrations of the free base of Compound I solubilized in DMSO (final concentration 0.1%). The effect of the drug on tumor cell growth was determined using the neutral red cytotoxicity assay following five days of continuous treatment. Neutral red is a dye that is selectively taken up by viable cells by an ATP-dependent transport mechanism.

MDA-MB-231 = experiment: Growth inhibition, neutral red assay, MDA-MB-231; format: cell-based, human; settings: free base, five days
Protocol: as §1

MDA-MB-435 = experiment: Growth inhibition, neutral red assay, MDA-MB-435; format: cell-based, human; settings: free base, five days
Protocol: as §1

UISO-BCA-1 = experiment: Growth inhibition, neutral red assay, UISO-BCA-1; format: cell-based, human; settings: free base, five days
Protocol: as §1

Molt-4 = experiment: Growth inhibition, neutral red assay, Molt-4; format: cell-based; settings: Homo sapiens, HCl salt
Protocol: as §1

RPMI-8226 = experiment: Growth inhibition, neutral red assay, RPMI-8226; format: cell-based; settings: Homo sapiens, HCl salt
Protocol: as §1

OVCAR = experiment: Growth inhibition, neutral red assay, OVCAR; format: cell-based; settings: Homo sapiens; HCl salt
Protocol: as §1

[3] = tested on: panel of cultured human cell lines derived from various tissue origins; experiment: Growth inhibition, neutral red assay, whole panel; format: cell-based; settings: all cell lines of the panel, read-out: GI50 value calculated for all cell lines
Protocol: as §1

[4] = tested on: HT-29 human colon carcinoma cell line; experiment: Growth inhibition, SRB assay, HT-29; format: cell-based; design: Growth Inhibition: key to the marks not given beside the values
[5] = tested on: NRK, Kidney (non ras-transformed); experiment: Growth inhibition, SRB assay, NRK; format: cell-based
[6] = tested on: PKG activity in HCT116 colon cancer cells; experiment: PKG assay of lysates of drug-treated HCT116 cells; format: cell-based
From the text: To test the effect of cGMP-specific PDE inhibition on neoplasia containing the β-catenin mutation, HCT116 colon cancer cells were employed. HCT116 is known to contain the β-catenin mutation, but is known not to contain the APC mutation.
The same procedure is used to grow the HCT116 cells as is used in the SW480 procedure described above. In this experiment, only exisulind and controls were used.

[7] = tested on: new polyps in patients with adenomatous polyposis coli; experiment: Clinical prevention trial in APC patients; format: in vivo, human
From the text: The first clinical trial involved patients with APC.
using exisulind. In that study, each patient had already had his/her colon removed, except for a small section of colon adjacent the rectum (where the small intestine was attached) to preserve rectal function. However, such a patient commonly forms polyps in the small remaining colonic section, which polyps require periodic removal (e.g., by electrocautery).
That trial where exisulind was selected was a prevention trial designed to evaluate the anti-neoplastic characteristics of the drug by comparing the cumulative number of new polyps formed over twelve months by the drug and placebo groups. Eligible patients were those who form between 9 and 44 polyps per year. Patients were fully ablated (had all polyps removed) at the start of the study, at the end of 6 months and at the end of 12 months. The study enrolled thirty-four eligible patients. […] Based on the median number of polyps produced in the first six months of the study, patients treated with exisulind developed approximately one-third the number of polyps as patients treated with placebo (median values 9 polyps/year and 26 polyps/year, respectively; p=0.013). […]

## CC1=C(CC(=O)NCc2ccccc2)c2cc(F)ccc2/C1=C\c1ccncc1 [Compound I, (Z)-5-fluoro-2-methyl-(4-pyridylidene)-3-(N-benzyl)indenylacetamide hydrochloride]
28-day study in rats; rats, 2000 mg/kg/day
  organ weight data, 28-day study: statistically significant increase in liver weights
28-day study in rats; rats, 50, 500 and 2000 mg/kg/day
  clinical observations, 28-day study: no abnormal clinical observations
[1]
  DNA fragmentation in PrEC (normal prostate) cells: did not affect DNA fragmentation
[2]
  side effects in humans: no significant side effects at any dose
NCI-H23; Homo sapiens, NCI-H23, 120 h
  GI50: 1.7 µM
NCI-H23
  GI90 μM, NCI-H23: 2.5 µM
MDA-MB-231; Homo sapiens, MDA-MB-231, 120 h
  GI50: 1.8 µM
MDA-MB-231
  GI90 μM, MDA-MB-231: 77.6 µM
MDA-MB-435; Homo sapiens, MDA-MB-435, 120 h
  GI50: 1.6 µM
MDA-MB-435
  GI90 μM, MDA-MB-435: 2.3 µM
UISO-BCA-1; Homo sapiens, 120 h
  GI50: 1.5 µM
UISO-BCA-1
  GI90 μM, UISO-BCA-1: 4.7 µM
Molt-4
  GI50: 1.6 µM
RPMI-8226
  GI50: 1.2 µM
OVCAR
  GI50: 1.2 µM
[3]
  GI50: 1000 to 2000 nM

## CC1=C(CC(=O)O)c2cc(F)ccc2/C1=C\c1ccc(S(C)(=O)=O)cc1 [Exisulind, 5-fluoro-2-methyl-1-(p-methylsulfonylbenzylidene)-3-indenylacetic acid]
[4]; Homo sapiens, HT-29, 144 h, six days, SRB assay, read-out: IC50, growth of HT-29 cells
  IC50: ~200000 nM
[4]; Homo sapiens, HT-29, read-out: Growth-inhibitory activity, % Inhibition at 100 μM
  inhibition at 100 µM: < 50%
[4]; qualitative activity profile
  Growth Inhibition: ++
[5]
  IC50: 180 µM
[6]
  PKG activation relative to controls: yielded PKG that was phosphorylated to a greater extent than the corresponding controls
[7]; entire 12 months of the study
  median number of polyps produced, entire 12 months: 18 polyps/year
[7]; first six months of the study
  median number of polyps produced, first six months: 9 polyps/year
